Measured values: doi:10.1101/2023.11.08.566240v2, “Divergent Protein Kinase A contributes to the regulation of flagellar waveforms in Leishmania mexicana” (biorxiv, 2025)

Target: T1, LmxPKAR1-LmxPKAC1 (mNG::PKAC1) (Leishmania mexicana, UniProt E9AP50)
T1 construct: gene LMXM_13_0160; with protein kinase A catalytic subunit isoform 1
T1 sequence (E9AP50 1-503): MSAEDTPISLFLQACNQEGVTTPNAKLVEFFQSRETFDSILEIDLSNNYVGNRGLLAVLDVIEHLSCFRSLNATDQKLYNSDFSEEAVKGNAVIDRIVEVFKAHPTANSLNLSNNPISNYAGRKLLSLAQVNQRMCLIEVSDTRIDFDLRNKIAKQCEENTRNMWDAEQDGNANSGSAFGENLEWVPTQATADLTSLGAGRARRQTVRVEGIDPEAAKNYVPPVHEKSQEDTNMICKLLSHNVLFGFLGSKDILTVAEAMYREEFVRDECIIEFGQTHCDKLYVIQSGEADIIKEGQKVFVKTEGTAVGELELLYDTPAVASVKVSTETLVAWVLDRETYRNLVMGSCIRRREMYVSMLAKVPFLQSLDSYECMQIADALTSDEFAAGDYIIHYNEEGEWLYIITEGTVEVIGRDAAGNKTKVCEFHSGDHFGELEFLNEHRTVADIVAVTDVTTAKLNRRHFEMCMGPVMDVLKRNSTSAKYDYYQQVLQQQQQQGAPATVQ
T1 sequence (E9B6S9 1-371 partner): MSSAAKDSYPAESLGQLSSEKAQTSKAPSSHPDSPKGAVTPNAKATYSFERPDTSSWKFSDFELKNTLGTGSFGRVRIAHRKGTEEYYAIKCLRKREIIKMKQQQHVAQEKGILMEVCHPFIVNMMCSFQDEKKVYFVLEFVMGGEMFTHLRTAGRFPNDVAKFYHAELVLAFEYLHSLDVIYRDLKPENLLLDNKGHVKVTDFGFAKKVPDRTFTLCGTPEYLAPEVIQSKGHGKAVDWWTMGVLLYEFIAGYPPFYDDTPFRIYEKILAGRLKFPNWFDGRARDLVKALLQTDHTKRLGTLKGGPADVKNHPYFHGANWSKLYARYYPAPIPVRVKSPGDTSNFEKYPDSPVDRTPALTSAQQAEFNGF
Test: release of mNG::PKAC1 fluorescence from flagellar cytoskeletons, microscopy
Format: biochemical
Conditions: indirect assay of PKAR1 activation; detergent-extracted cytoskeletons in PEME buffer; 10 nM to 10 µM inosine

For `OC[C@H]1O[C@@H](n2cnc3c(O)ncnc32)[C@H](O)[C@@H]1O` [inosine], the EC50 was roughly 9 nM.
